Reference: patent US6605644B2, “Analgesic regimen” (Ortho-McNeil Pharmaceutical, Inc., priority 1999, dated 2003)
Where a name gives a salt, the structure may show the parent alone.

Tests used:
[1] = Example 1: randomized double-blind study of 1-, 4- or 10-day titration to 200 mg/day in patients with chronic joint pain; type: in vivo; conditions: 10-day titration group (50 mg increments every 3 days to 200 mg/day) compared with 1-day and 4-day titration groups, 14 days
Protocol: A total of 465 patients with chronic joint pain were enrolled in the study and randomized into one of four treatment groups for 14 days. Patients continued on their prestudy dose of NSAIDs while concurrently receiving tramadol or placebo. Tramadol groups were titrated at three different rates to achieve the study target dose of 200 mg/day. […] Discontinuation due to any adverse event was similarly analyzed. If the trend was statistically significant, pairwise comparisons were performed to determine the statistical significance between titration rates.
The study protocol was approved by an Institutional Review Board at each study site and informed consent regarding the risks and benefits of participation was obtained for all patients.
Patients with chronic joint pain who had been receiving a maintenance dose (±25%) of NSAID for at least 30 days, and who required additional pain relief, were randomized into three titration groups and a placebo group using a 2:2:2:1 randomization schedule. […]

[2] = Example 2: open-label run-in and double-blind study of 10-, 16- or 13-day titration in subjects with chronic pain
[3] = cited from earlier work
[4] = cited from earlier work; for peak plasma concentration: mean±standard deviation
[5] = molecular target: μ opioid receptors (Homo sapiens, UniProt P35372); conditions: cited from earlier work
μ opioid receptors, sequence (P35372 whole entry): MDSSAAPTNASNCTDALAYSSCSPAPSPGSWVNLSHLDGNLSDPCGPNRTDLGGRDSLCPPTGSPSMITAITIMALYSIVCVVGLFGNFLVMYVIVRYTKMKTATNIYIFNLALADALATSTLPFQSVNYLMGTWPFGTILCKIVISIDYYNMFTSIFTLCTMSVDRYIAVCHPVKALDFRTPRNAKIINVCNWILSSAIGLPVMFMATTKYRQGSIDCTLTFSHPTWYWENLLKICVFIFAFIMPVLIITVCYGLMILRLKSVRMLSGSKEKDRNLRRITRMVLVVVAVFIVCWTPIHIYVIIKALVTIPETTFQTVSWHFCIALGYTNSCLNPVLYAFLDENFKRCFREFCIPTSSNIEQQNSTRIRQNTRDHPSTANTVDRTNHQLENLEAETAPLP

[6] = double-blind phase, 10-day titration group
[7] = double-blind phase, 13-day titration group
[8] = double-blind phase, 16-day titration group
[9] = single 100 mg oral dose, healthy subjects

Compound | discontinuations due to dizziness and/or vertigo, nausea and/or vomiting, and any other adverse event [1] | median time to discontinuation due to any adverse event [2, 6] | median time to discontinuation due to nausea and/or vomiting [2, 6] | mean reduction from baseline PVA scores ([2]; double-blind phase, 10-day titration group (200 mg/day)) | median time to discontinuation due to any adverse event [2, 7] | median time to discontinuation due to nausea and/or vomiting [2, 7] | mean reduction from baseline PVA scores ([2]; double-blind phase, 13-day titration group (150 mg/day)) | median time to discontinuation due to any adverse event [2, 8] | median time to discontinuation due to nausea and/or vomiting [2, 8] | mean reduction from baseline PVA scores ([2]; double-blind phase, 16-day titration group (200 mg/day)) | mean reduction from baseline PVA scores ([2]; open-label/run-in phase, titrated to 200 mg/day over four days) | advantage in cumulative proportion of subjects who discontinued due to nausea and/or vomiting ([2]; titration to 200 mg/day over 10 days versus over 16 days) | bound to plasma proteins [3] | absorption after oral administration ([4]; oral administration) | peak plasma concentration [4, 9] | time of peak plasma concentration after administration [4, 9] | binding affinity to μ receptors [5] | terminal plasma elimination half-life [4, 9]
COc1cccc(C2(O)CCCCC2CN(C)C)c1 (centres unmarked) [tramadol hydrochloride, 2-[(dimethylamino)methyl]-1-(3-methoxyphenyl)cyclohexanol] | fewest discontinuations | 9.0 days | 9.0 days | 1.4 cm | 6.5 days | 5.5 days | 1.6 cm | 6.0 days | 4.0 days | 1.5 cm | 2.1 cm | 20 percentage | 20.2% | rapidly and almost completely absorbed | 308 ± 78 ng/mL | two | low-affinity binding | –
CN(C)C[C@H]1CCCC[C@]1(O)c1cccc(O)c1 [mono-O-desmethyl tramadol, mono-O-desmethyltramadol] | – | – | – | – | – | – | – | – | – | – | – | – | – | – | 55 ± 20 ng/mL | approximately three | – | 7.4 ± 1.4 h
